# Measurements as given in paper PMC7170299, “Design, synthesis, molecular modelling and biological evaluation of novel 3-(2-naphthyl)-1-phenyl-1H-pyrazole derivatives as potent antioxidants and 15-Lipoxygenase inhibitors” (Journal of Enzyme Inhibition and Medicinal Chemistry, 2020).
# Tests used:
# [1] = test system: Catalase (CAT) activity in liver; assay: In vivo catalase (CAT) activity in liver homogenate; set-up: species or system male Wistar albino rats; settings: rat liver; 100 mg/kg orally for 3 days; mean ± SEM, n = 6
# Description: (§1) The complete progress of the experiment was conducted using male Wistar albino rats (200–250 g), delivered by the Institutional Breeding House, Egypt, reared and maintained in the animal house of the institution. The animals had free access to food and water ad libitum and maintained in a controlled environment under standard conditions of temperature and humidity with an alternating 12 h light and dark cycle for about a week for acclimatization. The protocol of the study was approved by the Animal Ethics Committee of the Faculty of Pharmacy, Helwan University (ethical code number: 05A2019; date: October 2019). The study was conducted in accordance with the EC, directive 86/609/EEC for animal experiments.
# (§2) Rats are weighed at the beginning and at the end of experiment. Fifty-four male albino rats (n=6) were divided into nine different groups. Group I served as a control group and treated with the same volume vehicle only. Group II treated with 100 mg/kg of Ascorbic acid as standard antioxidant drug. Groups (III–IX) orally administered 100 mg/kg of compounds 3a, 4e, 5b, 5c, 6a, 6c, 6e, respectively, for 3 days. The animals were sacrificed by cervical dislocation 24 h after the last dose. Sacrificing is carried out at the same time of the day, to avoid the circadian variation in the level of tissue GSH[53]. Each liver was excised, weighed, rinsed in ice-cold normal saline and frozen for not more than 72 h await analysis of endogenous antioxidant status (GSH levels and CAT activity) and lipid peroxide concentrations. For performing biochemical assays, a 10% liver homogenate in 10 mM phosphate buffer was prepared using tissue homogeniser (Glas-Col®, Cat no.099C K6424, TERRE HAUTE, USA).
# Catalase activity in 10% liver homogenates was determined spectrophotometrically according to Sinha AK[54]. The decrease in absorbance at 240 nm due to H2O2 decomposition was measured and the results were expressed in U/mg tissue.
# [2] = Superoxide scavenging assay (pyrogallol autoxidation); settings: mean ± SEM of three experiments; pyrogallol autoxidation, 325 nm
# Description: The improved pyrogallol autoxidation method was used to determine O2^−. RSA of all synthesized compounds as previously described. Briefly, 50 µL of test compounds (12.5, 25, 50,100, and 200 µg/mL) was added to 2900 µl of […] Tris HCl buffer (0.05 M, pH 7.4) containing 1-mM Na2EDTA. Next, 50 µL of 60-mM pyrogallol in1mM HCl had been thoroughly mixed with the mixture. The absorbance of the reaction mixture was measured at A325 nm every 30 s for 5 min. O2^− RSA was expressed by the oxidation degree of a test group in comparison to that of the control. The absorbance at 325 nm was measured against the Tris-HCl buffer every 30 s for 5 min. The percentage of scavenging effect was calculated using the following equation: O2^− radical scavenging %=[(ΔA325, control/T)−(ΔA325nm, sample/T)/ΔA325nm, control/T]×100 where ΔA325 nm, control is the increase in A325 nm of the reaction mixture without the sample and ΔA325 nm, sample is that for the mixture with the sample; T=5 min. The experiments were performed in triplicate.
# [3] = NO scavenging assay (sodium nitroprusside / Griess reagent); settings: mean ± SEM of three experiments; 90 min, 546 nm
# Description: The NO scavenging activity of all synthesized compounds was measured as previously described by Ho et al.[50] Briefly, 50 µL of different concentrations of the tested compounds (12.5, 25, 50,100, and 200 µg/mL) were pipetted into a 96-well plate. Then, 50 µL of 10-mM sodium nitroprussides dissolved in phosphate-buffered saline PBS (pH 7.4) were added to each well and the plate was incubated for 90 min at room temperature. Next, an equal volume of Griess reagent (1% of sulphanilamide and 0.1% of naphthyl ethylene diamine in 2.5% […]) was added to each well to measure the nitrite content. The absorbance of the formed pink-coloured chromophore was measured at λ 546 nm. DMSO and ascorbic acid were used as the negative and positive control, respectively. All tests were performed in triplicate. The percentage of NO scavenging activity was calculated according to the following equation: % of NO scavenging=[(Acontrol−Asample)/Acontrol]×100 where Acontrol is the absorbance of the control reaction (with all reagents except the test compound), and Asample is the absorbance of the test sample.
# [4] = test system: lipid peroxidation (MDA) in liver; assay: In vivo lipid peroxide level (TBARS/MDA) in liver homogenate; set-up: species or system male Wistar albino rats; settings: rat liver; 100 mg/kg orally for 3 days; mean ± SEM, n = 6
# Description: as §1, §2
# Lipid peroxidation level in the liver homogenates was determined as thiobarbituric acid reactive substances (TBARS) by measuring malondialdehyde ‘MDA’ level according to Mihara and Uchiyama[56]. Briefly, 0.5 mL supernatant of tissue homogenate was mixed with 0.6% thiobarbituric acid (TBA) and 1% orthophosphoric acid solution, and heated in a boiling water bath for 45 min. The pink-coloured chromogen formed by the reaction of TBA with MDA was extracted by n-butanol and measured at 535 nm. The results were expressed as nmol/g tissue.
# [5] = DPPH radical scavenging assay; settings: mean ± SEM of three experiments; 30 min, 517 nm
# Description: The DPPH scavenging activity of all synthesized compounds was measured as previously described by Nahar et al.[48] with some modifications. Briefly, 100 µL of different concentrations of the tested compounds (12.5, 25, 50, 100, and 200 µg/mL) were pipetted into a 96-well plate. Then, 100 µL of 100-µM DPPH methanolic solution were added to each well and the plate was incubated protected from light at room temperature for 30 min. The absorbance of the solution was measured at λ517 nm.[49] Ascorbic acid was used as the positive control while DMSO was the negative control. The percentage of DPPH scavenging activity was calculated according to the following equation: % of DPPH scavenging=[(Acontrol–Asample)/Acontrol] ×100, where Acontrol is the absorbance of the control reaction (with all reagents except the test compound), and Asample is the absorbance of the test sample. […] All tests were performed in triplicates.
# [6] = test system: glutathione (GSH) in liver; assay: In vivo reduced glutathione (GSH) level in liver homogenate; set-up: species or system male Wistar albino rats; settings: rat liver; 100 mg/kg orally for 3 days; mean ± SEM, n = 6
# Description: as §1, §2
# Levels of glutathione (GSH) in liver homogenates were assayed by the deproteinization of tissue homogenate. Then […] supernatant was mixed with di-potassium hydrogen phosphate buffer (pH 8) and 0.4% 5,5′-dithiobis-2-nitrobenzoic acid (Ellman’s reagent). The yellow-coloured substance formed was measured at 412 nm. The results were expressed as GSH mg/g tissue.
# [7] = set-up: method as in PMID 24752861; settings: at 10^−4 M concentration; cited from earlier work
# [8] = biological target: T1, Soybean 15-LOX enzyme (Glycine max, UniProt P08170); assay: In vitro lipoxygenase inhibition (Cayman lipoxygenase inhibitor screening assay kit); format: biochemical; settings: mean ± SEM of three experiments; substrate arachidonic acid
# T1 construct: purchased Cayman Chemical 760700
# T1 sequence (P08170 1-839): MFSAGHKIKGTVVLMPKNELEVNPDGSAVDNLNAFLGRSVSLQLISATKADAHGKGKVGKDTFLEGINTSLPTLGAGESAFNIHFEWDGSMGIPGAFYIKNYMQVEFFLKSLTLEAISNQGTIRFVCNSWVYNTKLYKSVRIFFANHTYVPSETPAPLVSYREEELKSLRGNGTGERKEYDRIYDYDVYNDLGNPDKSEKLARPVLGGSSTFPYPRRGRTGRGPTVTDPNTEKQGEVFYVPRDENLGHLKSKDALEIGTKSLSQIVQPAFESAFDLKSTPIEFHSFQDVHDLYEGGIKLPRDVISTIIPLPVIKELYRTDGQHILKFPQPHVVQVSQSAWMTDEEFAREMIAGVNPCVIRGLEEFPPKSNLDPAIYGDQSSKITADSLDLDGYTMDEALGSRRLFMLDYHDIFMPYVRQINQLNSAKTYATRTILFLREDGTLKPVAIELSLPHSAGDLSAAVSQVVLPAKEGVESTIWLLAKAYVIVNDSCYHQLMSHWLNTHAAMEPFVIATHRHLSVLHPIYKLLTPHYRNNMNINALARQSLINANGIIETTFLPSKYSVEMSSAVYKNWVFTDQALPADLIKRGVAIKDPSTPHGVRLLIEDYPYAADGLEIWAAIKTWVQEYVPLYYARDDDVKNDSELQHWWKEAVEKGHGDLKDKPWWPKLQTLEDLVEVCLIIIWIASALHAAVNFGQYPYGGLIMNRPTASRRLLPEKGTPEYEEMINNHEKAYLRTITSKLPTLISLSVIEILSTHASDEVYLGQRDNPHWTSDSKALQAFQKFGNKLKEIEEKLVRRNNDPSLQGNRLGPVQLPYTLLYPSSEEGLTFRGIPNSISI
# Description: The assay was performed using Cayman’s lipoxygenase inhibitor screening assay kit (Catalog No. 760700, Cayman Chemical, USA) according to the manufacturer’s instructions. Briefly, 90 µL of 15-LOX was pipetted into a 96-well plate. Next, 10 µL of test compound at concentrations (2.5, 5.0 and 10 µM) dissolved in DMSO were added to each well. The reaction was initiated by adding 10 µL substrate (AA) and the plate was placed on a shaker for at least 5 minutes. Finally, 100 µL of chromogen (prepared according to manufacturer’s instructions) was added to each well to stop enzyme catalysis and develop the reaction. 100 µL of Assay buffer (0.1 M Tris-HCl, pH7.4) was used in blank wells. […] The absorbance of the solution was measured at λ 490–500 nm. The percentage inhibition was calculated according to the following equation: % inhibition =[(IA−Ainhibitor sample)/IA]×100 where (IA) is the 100% initial activity and (Ainhibitor sample) is the absorbance of the test sample. Dose–response curve was plotted between % inhibition and the drug concentration. The non-linear dose–response curve was used for calculating drug concentration showing 50% enzyme inhibition.
NO IC50 [3] [mg/L],DPPH IC50 [5] [mg/L],melting point [°C],IC50 [8] [µM],Compound,CAT [1] [U/mg tissue],Superoxide IC50 [2] [mg/L],TBARS [4] [nmol/g tissue],GSH [6] [mg/g tissue],DPPH scavenging activity [7] [%]
37.9 ± 1.31,13.67 ± 0.97,,,"O=C1O[C@H]([C@@H](O)CO)C(O)=C1O [Ascorbic acid, reference compound]",42.56 ± 3.76,124.99 ± 1.32,0.392 ± 0.07,8.25 ± 0.45,
,,,,"Cc1cc(C(C)(C)C)c(O)c(C(C)(C)C)c1 [BHT7, butylated hydroxy toluene]",,,,,20
37.5 ± 1.36,97.17 ± 1.4,190 to 191,5.53 ± 0.07,"c1ccc(C2=NOC(c3cn(-c4ccccc4)nc3-c3ccc4ccccc4c3)C2)cc1 (stereo not shown) [Compound 5a, 5-(3-Naphthalen-2-yl-1-phenyl-1H-pyrazol-4-yl)-3-phenyl-4,5-dihydro-isoxazole]",,192.37 ± 1.74,,,
96.56 ± 1.4,38.44 ± 1.28,187 to 189,3 ± 0.06,"Clc1ccc(C2=NOC(c3cn(-c4ccccc4)nc3-c3ccc4ccccc4c3)C2)cc1Cl (stereo not shown) [Compound 5e, 3-(3,4-Dichlorophenyl)-5-(3-naphthalen-2-yl-1-phenyl-1H-pyrazol-4-yl)-4,5-dihydro isoxazole]",,168.77 ± 1.42,,,
198.08 ± 1.28,12.02 ± 0.63,193 to 194,1.9 ± 0.06,COc1ccc(C2=NN(C(N)=S)C(c3cn(-c4ccccc4)nc3-c3ccc4ccccc4c3)C2)cc1 (stereo not shown) [Compound 6b],,>200,,,
148.08 ± 1.36,>200,186 to 187,1.67 ± 0.03,NC(=S)N1N=C(c2ccc(Cl)cc2)CC1c1cn(-c2ccccc2)nc1-c1ccc2ccccc2c1 (stereo not shown) [Compound 6d],,>200,,,
,,,,NS(=O)(=O)c1ccc(N2N=C(c3ccco3)CC2c2cnn(-c3ccccc3)c2)cc1 (stereo not shown) [XI],,,,,19
